Assay results from patent US8143226B2, “Tyrosine kinase receptor antagonists and methods of treatment for breast cancer” (The Regents of the University of California, priority 2005, dated 2012).
Like-named read-outs stand apart in the source and are kept apart here.

Key:
[1] = tested on: AKT/PKB; assay: Akt/PKB phosphorylation in MCF-7/HER2-18 cells (western blot); type: cell-based, human
Description: […]. Enzyme linked immunosorbent assays (ELISA) for phosphorylated IGF-1R and HER2 IGF-1R phosphorylation was determined by ELISA as described previously for the insulin receptor [Youngren JF, Goldfine ID and Pratley RE: Decreased muscle insulin receptor kinase con-elates with insulin resistance in normoglycemic Pima Indians. Am J Physiol 273: E276-83, 1997]. Briefly, 10 μg lysate protein were added to triplicate wells in a 96-well plate coated with monoclonal antibody to the IGF-IR (IR3; 2 μg/ml), and incubated for 18 hours at 4° C. Plates were washed five times and then HRP-conjugated anti-phosphotyrosine antibody (0.3 μg/ml), diluted in Solution B (50 mM HEPES, pH 7.6, 150 mM NaCl, 0.05% Tween-20, 1 mM PMSF, 2 mM vanadate and 1 mg/ml bacitracin), was added for two hours at 22° C. Plates were washed five times prior to color development with TMB substrate, which was terminated with 1.0 M H3PO4. Values for receptor phosphorylation were determined by measuring absorbance at 450 nm.
Total protein extracts (10 μg), prepared as described above from cells cultured in the presence or absence of IGF-1 and/or RTK inhibitors, were subjeccted to SDS-PAGE and subsequently transferred to nitrocellulose membranes. […] Membranes were washed again and bound antibodies detected by enhanced chemiluminescence (Pierce). […]

[2] = tested on: Akt; assay: IGF-stimulated Akt phosphorylation in neuroblastoma cells; type: cell-based, human; settings: SH-SY5Y and SHEP cells
Description: (§1) Detection of phospho-Akt and phospho-Erk. […] Then, some cultures were treated with 10 nM IGF-I for 15 min. Cultures were immediately placed on ice, the medium was removed, and the cells were lysed in modified RIPA buffer (20 mM Tris, 150 mM NaCl, 1 mM EDTA, 1 mM EGTA, 1% Triton X-100, 0.1% sodium dodecyl sulfate, and 1% deoxycholate). Fifty μg of protein from each sample were separated via SDS-PAGE and transfened to nitrocellulose. Phospho- and total-Akt and -Erk were detected by immunoblotting.

[3] = pure NDGA; cited from earlier work
[4] = target: T1, HER2/neu (Rattus norvegicus, UniProt P06494); assay: HER2/neu phosphorylation in excised MCNeuA tumors (western blot); type: in vivo, mouse; settings: 37.5 mg/kg i.p. three times a week, 16 hours after final dose, vs vehicle
T1 construct: expressed in transfected cells; host or cells: MCNeuA mouse mammary carcinoma cells (MMTV/neu transgene), in culture or grown as tumours in neuTg mice
Description: Tumors were homogenized in 50 mM HEPES, pH 7.6, 150 mM NaCl, 1 mM PMSF, 2 μM leupeptin, 2 μM Pepstatin A, and 2 mM Na3VO4, and solubilized by the addition of 1% Triton x-100. Soluble lysates were prepared as described for cell culture studies. Tyrosine phosphorylation of IGF-1R was determined by ELISA as described for MCF-7 cells. Phosphorylation of HER2/neu was determined by western blot employing the phospho-specific antibody as in the cell culture studies. The degree of phosphorylation for each receptor was normalized to total receptor protein content in the tumor samples as determined by western blotting with antibodies against the human IGF-1R and the rodent HER2/neu.

[5] = tested on: ERK 1 and 2; assay: IGF-stimulated ERK phosphorylation in neuroblastoma cells; type: cell-based, human; settings: SH-SY5Y cells, NDGA 1 h, 10 nM IGF-I 15 min
Description: as §1

[6] = tested on: MCF-7/HER2-18 cells; assay: Growth of MCF-7/HER2-18 cells with RTK inhibitors, 6 days (CyQuant); type: cell-based, human; settings: read-out: one half maximal effect on growth
Description: MCF-7/neo or MCF-7/HER2-18 cells were plated in 96 well plates (4×10^3 cells/well) in 100 μl/well of DMEM-10 medium. […] Media with inhibitors was refreshed on day 3 and the cultures were harvested on day 6. The plates were inverted onto paper towels with gentle blotting to remove growth medium without disrupting adherent cells. Each plate was kept at −80° C. until assayed for cell growth. After thawing the plate at room temperature, 200 μl of CyQuant GR solution was added to each well and the plates were incubated in the dark for five minutes. Fluorescence was measured with a SpectraMax Gemini XS fluorescence microplate reader (Molecular Devices) with 480-nm excitation and 520-nm emission.

[7] = tested on: PDGF receptor; settings: Domin et al. 1994; cited from earlier work

T1 sequence (P06494 23-1257): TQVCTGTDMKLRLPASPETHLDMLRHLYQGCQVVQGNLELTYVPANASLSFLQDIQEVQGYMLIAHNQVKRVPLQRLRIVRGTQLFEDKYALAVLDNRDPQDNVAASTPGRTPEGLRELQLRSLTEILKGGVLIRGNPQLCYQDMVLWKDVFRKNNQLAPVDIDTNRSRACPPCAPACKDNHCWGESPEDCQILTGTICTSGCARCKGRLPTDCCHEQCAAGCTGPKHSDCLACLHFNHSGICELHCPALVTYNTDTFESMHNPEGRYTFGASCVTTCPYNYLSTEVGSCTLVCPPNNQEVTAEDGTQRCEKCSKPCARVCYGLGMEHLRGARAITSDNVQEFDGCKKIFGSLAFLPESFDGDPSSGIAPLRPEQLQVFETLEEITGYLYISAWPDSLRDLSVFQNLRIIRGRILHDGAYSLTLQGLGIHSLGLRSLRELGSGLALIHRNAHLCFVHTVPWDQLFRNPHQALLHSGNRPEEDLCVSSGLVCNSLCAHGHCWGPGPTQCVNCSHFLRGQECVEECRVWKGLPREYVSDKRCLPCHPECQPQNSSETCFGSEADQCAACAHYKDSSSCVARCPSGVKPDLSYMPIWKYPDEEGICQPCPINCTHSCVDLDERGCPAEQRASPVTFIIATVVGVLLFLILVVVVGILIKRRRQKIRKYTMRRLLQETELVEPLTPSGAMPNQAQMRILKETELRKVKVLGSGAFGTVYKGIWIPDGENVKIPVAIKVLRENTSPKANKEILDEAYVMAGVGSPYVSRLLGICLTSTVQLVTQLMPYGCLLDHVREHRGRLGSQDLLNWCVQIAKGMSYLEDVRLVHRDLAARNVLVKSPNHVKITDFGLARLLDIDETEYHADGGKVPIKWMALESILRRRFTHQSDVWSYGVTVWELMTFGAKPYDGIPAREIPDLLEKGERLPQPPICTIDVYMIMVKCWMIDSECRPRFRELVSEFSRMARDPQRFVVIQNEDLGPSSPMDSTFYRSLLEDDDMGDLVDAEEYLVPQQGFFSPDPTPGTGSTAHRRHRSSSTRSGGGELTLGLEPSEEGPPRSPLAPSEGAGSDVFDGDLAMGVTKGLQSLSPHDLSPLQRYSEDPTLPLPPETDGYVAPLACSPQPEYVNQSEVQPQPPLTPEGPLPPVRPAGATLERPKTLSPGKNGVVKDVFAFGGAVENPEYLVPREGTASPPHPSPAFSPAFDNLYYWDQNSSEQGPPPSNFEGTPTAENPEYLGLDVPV

CC(Cc1ccc(O)c(O)c1)C(C)Cc1ccc(O)c(O)c1 (stereo not drawn) [NDGA, nordihydroguaiaretic acid]
IGF-1 stimulated phosphorylation of AKT/PKB ([1]; 3 nM IGF-1): inhibited
level of phospho-AKT/PKB ([1]; absence of IGF-1): decreased
IGF-stimulated Akt phosphorylation [2]: dose-dependent inhibition
toxicity [3]: minimal toxicity
HER2/neu receptor autophosphorylation in tumors [4]: reduced
IGF-stimulated phosphorylation of ERK [5]: dose-dependent inhibitory effect
IC50 ([6]; Homo sapiens, 144 h): 12.5 µM
IC50 [6]: 10 to 20 µM
activation of the PDGF receptor [7]: inhibits
